This is an account of results in ChEMBL document CHEMBL6177971, “Iterative Optimization Yields Stapled Peptides with Superior Pharmacokinetics and Potency for Renal Fibrosis Treatment” (J Med Chem, 2025).

For data set [1], the system named is NIH3T3. The experiment in a line: Inhibition of myofibroblast activation in TGF-beta1-induced EMT in mouse NIH3T3 cells assessed as decrease in fibronectin level incubated for 48 hrs by Western blot analysis. It counts as functional, cell-based. Conditions: dose 1-10 µM.
Data set [2] deals with Mus musculus. The experiment in a line: Anti-fibrotic activity in C57BL/6J mouse model of unilateral ureteral obstruction assessed as decrease in TGF-beta1 mRNA level at 0.25 mg/kg, ip administered every day for 7 days by qPCR analysis. It counts as functional, organism-based. Conditions: time 7.0 day.
For data set [3], the system named is Mus musculus. Put plainly: Anti-fibrotic activity in C57BL/6J mouse model of unilateral ureteral obstruction assessed as decrease in vimentin mRNA level at 0.25 mg/kg, ip administered every day for 7 days by qPCR analysis. It counts as functional, organism-based. Conditions: time 7.0 day. On the technique in general: Quantitative PCR measures a nucleic acid by following its amplification.

Data set [4] has as its system HK-2. Put plainly: Cytotoxicity against human HK-2 cells assessed as inhibition of cell viability at 160 uM incubated for 24 hrs by CCK8 assay. It counts as toxicity, cell-based. The following applies: hk-2, 24 h.
Data set [5] concerns Mus musculus. The experiment in a line: Anti-fibrotic activity in C57BL/6J mouse model of unilateral ureteral obstruction assessed as decrease in renal alpha-SMA […] level administered intraperitoneally every day for 7 days by IHC analysis. Conditions: dose 0.05-1.25 mg/kg, route ip, time 7.0 day. Type of data set: functional, organism-based.
The subject of data set [6] is Mus musculus. Put plainly: Anti-fibrotic activity in C57BL/6J mouse model of unilateral ureteral obstruction assessed as decrease in renal collagen I […] level administered intraperitoneally every day for 7 days by IHC analysis. Type of data set: functional, organism-based. Conditions: dose 0.05-1.25 mg/kg, route ip, time 7.0 day.
Data set [7] has as its system Mus musculus. Put plainly: Anti-fibrotic activity in C57BL/6J mouse model of unilateral ureteral obstruction assessed as decrease in kidney edema at 0.05 to 1.25 mg/kg, ip administered every day for 7 days. It counts as functional, organism-based. Conditions: dose 0.05-1.25 mg/kg, time 7.0 day.
Data set [8] relates to Mus musculus. Put plainly: Anti-fibrotic activity in C57BL/6J mouse model of unilateral ureteral obstruction assessed as minimum effective dose administered intraperitoneally every day for 7 days. It counts as functional. Conditions: route ip; time 7 day.
The subject of data set [9] is NIH3T3. Put plainly: Inhibition of TGF-beta1-induced EMT in mouse NIH3T3 cells assessed as decrease in alpha-SMA level at 10 uM incubated for 48 hrs by Western blot analysis. It counts as functional, cell-based.
Data set [10] has as its system Mus musculus. The experiment in a line: Anti-fibrotic activity in C57BL/6J mouse model of unilateral ureteral obstruction assessed as decrease in fibronectin level at 0.25 mg/kg, ip administered every day for 7 days by Western blot analysis. It counts as functional, organism-based. The following applies: time 7.0 day. A general note: In western blotting, separated proteins are transferred to a membrane and probed.

The subject of data set [11] is Mus musculus. The experiment in a line: Anti-fibrotic activity in C57BL/6J mouse model of unilateral ureteral obstruction assessed as decrease in alpha-SMA mRNA level at 0.25 mg/kg, ip administered every day for 7 days by qPCR analysis. Type of data set: functional, organism-based. The following applies: time 7.0 day.
A short description of data set [12]: Volume of distribution in male C57BL/6J mouse at 2.8 mg/kg, iv measured for 3 to 240 mins by UHPLC-HRMS analysis. It counts as ADME, organism-based. The following applies: in vivo, time 3-240 min.
For data set [13], the system named is NIH3T3. The experiment in a line: Inhibition of myofibroblast activation in TGF-beta1-induced EMT in mouse NIH3T3 cells assessed as decrease in alpha-SMA mRNA level at 1 to 2 uM incubated for 48 hrs by qPCR analysis. It counts as functional, cell-based. Conditions: dose 1-2 µM.
The subject of data set [14] is NIH3T3. Put plainly: Inhibition of myofibroblast activation in TGF-beta1-induced EMT in mouse NIH3T3 cells assessed as decrease in TGF-beta1 mRNA level at 1 to 2 uM incubated for 48 hrs by qPCR analysis. Conditions: dose 1-2 µM. Type of data set: functional, cell-based.
For data set [15], the system named is Mus musculus. The experiment in a line: Anti-fibrotic activity in C57BL/6J mouse model of unilateral ureteral obstruction assessed as decrease in alpha-SMA level at 0.25 mg/kg, ip administered every day for 7 days by Western blot analysis. It counts as functional, organism-based. The following applies: time 7.0 day.
Data set [16] in a line: AUC (0 to infinity) in male C57BL/6J mouse at 2.8 mg/kg, iv measured for 3 to 240 mins by UHPLC-HRMS analysis. Conditions: in vivo, time 3-240 min. Type of data set: ADME, organism-based.
Data set [17] deals with HK-2. Put plainly: Inhibition of myofibroblast activation in TGF-beta1-induced EMT in human HK-2 cells assessed as decrease in collagen I level at 1 to 5 uM incubated for 24 hrs by Western blot analysis. It counts as functional, cell-based. Conditions: dose 1-5 µM.
Data set [18] can be described thus: AUC (0 to t) in male C57BL/6J mouse at 2.8 mg/kg, iv measured for 3 to 240 mins by UHPLC-HRMS analysis. It counts as ADME, organism-based. Conditions: in vivo, time 3-240 min.
Data set [19] relates to Mus musculus. The experiment in a line: Anti-fibrotic activity in C57BL/6J mouse model of unilateral ureteral obstruction assessed as decrease in MMP2 level at 0.25 mg/kg, ip administered every day for 7 days by Western blot analysis. Conditions: time 7.0 day. It counts as functional, organism-based.
Data set [20] relates to NIH3T3. Put plainly: Inhibition of myofibroblast activation in TGF-beta1-induced EMT in mouse NIH3T3 cells assessed as decrease in MMP2 mRNA level at 1 to 2 uM incubated for 48 hrs by qPCR analysis. It counts as functional, cell-based. Conditions: dose 1-2 µM.
Data set [21] deals with HK-2. The experiment in a line: Inhibition of myofibroblast activation in TGF-beta1-induced EMT in human HK-2 cells assessed as decrease in VIM mRNA level at 1 to 5 uM incubated for 24 hrs by qPCR analysis. It counts as functional, cell-based. The following applies: dose 1-5 µM.
Data set [22] relates to NIH3T3. The experiment in a line: Cytotoxicity against mouse NIH3T3 cells assessed as inhibition of cell viability at 10 to 40 uM incubated for 48 hrs by CCK8 assay. It counts as toxicity, cell-based. The following applies: nih3t3, 48 h, dose 10-40 µM. A general note: Tetrazolium dyes change colour on reduction, which living cells bring about.
Data set [23] has as its system HK-2. Put plainly: Inhibition of myofibroblast activation in TGF-beta1-induced EMT in human HK-2 cells assessed as decrease in MMP-2 level at 1 to 5 uM incubated for 24 hrs by Western blot analysis. It counts as functional, cell-based. Conditions: dose 1-5 µM.
The nature of data set [24]: Stability in C57BL/6J mouse serum assessed as proteolysis resistance measured up to 72 hrs by HPLC analysis. It counts as ADME, cell-free.

Activity calls are given as the source filed them. The rule behind the calls is not given here.

Consider `CCCCCCCCCCCC(=O)N[C@H](CC(=O)O)C(=O)N[C@@H](Cc1c[nH]cn1)C(=O)N[C@@H](CC(N)=O)C(=O)N[C@H]1CSCCCCCCSC[C@@H](C(N)=O)NC(=O)[C@@H](C)NC(=O)[C@H](CCC(N)=O)NC(=O)[C@@H]2CCCN2C1=O`, for which the inhibition result in the data set with NIH3T3 [1] was “Active; No Further Enhancement In Antifibrotic Activity Was Observed At Concentrations Above 2 Î¼M”. The outcome with Mus musculus [2], with Mus musculus [3], in the data set on Mus musculus [7], in the data set with Mus musculus [10], in the data set with Mus musculus [11] and with Mus musculus [15] was Active. Moreover, the result in the data set on Mus musculus [19] was Active. Moreover, the Activity entry in the data set with HK-2 [4] is “Non-toxic”; with Mus musculus [5], “Dose-dependent-effect”; in the data set on Mus musculus [6], “Dose-dependent-effect”; with NIH3T3 [22] it was “Non-toxic”. Besides, the MEC in the data set on Mus musculus [8] was found to be 0.05 mg/kg. Besides, the inhibition entry in the data set on NIH3T3 [9], with NIH3T3 [13], with NIH3T3 [14], with HK-2 [17], with NIH3T3 [20] and in the data set with HK-2 [21] was “Active” throughout. The inhibition result with HK-2 [23] was “Active”. Besides, the Vd in data set [12] was found to be 0.044 L. Further, the AUC(0-inf) in data set [16] came out at 1.94 µg·h/mL. Besides, the AUC(0-t) in [18] was 1.89 µg·h/mL. Besides, the Stability result in data set [24] is “Stable”.

Usually Vd stands for the apparent volume that relates the amount in the body to the concentration in plasma or blood. A higher Vd goes with wide distribution into tissue. For orientation: AUC(0-inf) means the area under the concentration-time curve extrapolated to infinity. The low end stands for low exposure, the high end for high exposure. The AUC(0-t) is the area under the concentration-time curve up to a stated or last time point. Read a high AUC(0-t) as high exposure.
